The values below come from patent US6339064B1, “Benzylglycosylamides as inhibitors of smooth muscle cell proliferation” (American Home Products Corporation, priority 1998, dated 2002).

Molecules are shown by their SMILES.

One experiment has as its system Porcine Smooth Muscle Cell. Kind of experiment: Effects of compounds on cell proliferation using 3H thymidine incorporation (porcine smooth muscle cell antiproliferation). The class given is cell-based. The conditions noted are these: Sus scrofa, serum/growth factor stimulated cells, 24-36 h incubation. Here is the method: Effects of Compounds on Cell Proliferation Using ^3H Thymidine Incorporation
Human and porcine smooth muscle cells were tested in early passage (generally passage 3-7) at sub-confluent conditions. Cultures were grown in 16 mm (24 well) multi-well culture dishes in medium 199 supplemented with 10% fetal bovine serum and 2% antibiotic/antimycotic. At sub-confluence, the cells were placed in a defined serum free medium (AIM-V; Gibco) for 24-48 h prior to initiating the experimental protocol.
Compounds were added to each well at 50 fold dilution (20 μL/well) and the plates were incubated for 24-36 h at 37° C. in 5% CO2. Compounds were initially dissolved in 50% ethanol and serially diluted into media. Compounds were routinely evaluated at concentrations from 1 to 100 μM. As a control, grade II porcine intestinal mucosal herapin (sodium salt) was routinely evaluated in all cell preparations at concentrations from 0.1 to 100 μg/mL.
At the completion of the test procedure, plates were placed on ice, washed three times with ice cold phosphate buffered saline (PBS) and incubated in ice cold 10% trichloroacetic acid (TCA) got 30 min to remove acid soluble proteins. Solution was transferred to scintillation vials containing 0.4 N HCl (500 μL/vial to neutralize NaOH) and each well was rinsed two times with water (500 μL) for a total volume of 2 mL/vial.
Data was obtained, in triplicate, for both control and experimental samples. Control (100%) data was obtained from maximally stimulated cells, as the result of growth factor or serum stimulation. Experimental data was obtained from cells maximally stimulated with growth factor or serum and treated with compound. Data are expressed as an IC50 in Table I below.
In general terms: Uptake of a labelled nucleoside into DNA is a usual measure of proliferation.
As to `CCCCOc1ccc(C(=O)N[C@@H]2O[C@H](COC(C)=O)[C@@H](O[C@H]3O[C@H](COC(C)=O)[C@@H](OC(C)=O)[C@H](OC(C)=O)[C@H]3OC(C)=O)[C@H](OC(C)=O)[C@H]2OC(C)=O)cc1Cl` [Example 18, 4-butoxy-3-chloro-N-[2,3,6-tri-O-acetyl-4-O-(2,3,4,6-tetra-O-acetyl-α-D-glucopyranosyl)-β-D-glucopyranosyl]benzamide], it took 3.5 µM to reach half-maximal inhibition (IC50).

The same experiment, now with this note: at 50 μM, control (100%) = maximally stimulated cells.
Regarding `O=C(NC1OC(CO)C(OC2OC3COC(c4ccccc4)OC3C(O)C2O)C(O)C1O)c1ccc(Cl)c([N+](=O)[O-])c1` [Example 5, (R)-4-chloro-3-nitro-N-[4-O-[4,6-O-(phenylmethylene)-α-D-glucopyranosyl]-β-D-glucopyranosyl]-benzamide], the “Porcine Smooth Muscle Cell Antiproliferation, % at 50 μM” value was found to be 37% at 50.

As for `O=C(N[C@@H]1O[C@H](CO)[C@@H](O[C@H]2O[C@@H]3COC(c4ccccc4)O[C@H]3[C@H](O)[C@H]2O)[C@H](O)[C@H]1O)c1ccc(Cl)cc1` (stereo partly drawn) [Example 11, N-(4′,6′-O-Benzylidene-β-D-maltosyl)-4-chloro-benzamide], the “Porcine Smooth Muscle Cell Antiproliferation, % at 50 μM” value amounted to 15% at 50.

In the case of `N#CCCCOc1ccc(C(=O)NC2OC(CO)C(OC3OC4COC(c5ccccc5)OC4C(O)C3O)C(O)C2O)cc1Cl` [Example 15, N-(4′,6′-O-Benzylidene-β-D-maltosyl)-3-chloro-4-(4-nitrilo-butoxy)-benzamide], the “Porcine Smooth Muscle Cell Antiproliferation, % at 50 μM” value is recorded as 30% at 50.

For `CC(=O)OC1C(NC(=O)c2ccc(OCCCC#N)c(Cl)c2)OC(COC(=O)c2ccccc2)C(OC2OC3COC(c4ccccc4)OC3C(OC(C)=O)C2OC(C)=O)C1OC(C)=O` [Example 17, N-(2,2′,3,3′-tetra-O-Acetyl-6-O-benzoyl-4′,6′-O-benzylidene-β-D-maltosyl)-3-chloro-4-(4-nitrilo-butoxy)-benzamide], the “Porcine Smooth Muscle Cell Antiproliferation, % at 50 μM” value came out at 33% at 50.

Turning to `CCCCOc1ccc(C(=O)NC2OC(CO)C(OC3OC4COC(c5ccccc5)OC4C(O)C3O)C(O)C2O)cc1Cl.O` [Example 19, 4-Butoxy-3-chloro-N-[(4′,6′-O-benzylidene)-β-D-maltosyl]-benzamide hydrate], the “Porcine Smooth Muscle Cell Antiproliferation, % at 50 μM” value is reported as 35% at 50.

Regarding `COc1cc(C(=O)NC2OC(CO)C(OC3OC4COC(c5ccccc5)OC4C(O)C3O)C(O)C2O)ccc1Cl` [Example 23, N-(4′,6′-O-Benzylidene-β-D-maltosyl)-4-chloro-3-methoxy-benzamide], the “Porcine Smooth Muscle Cell Antiproliferation, % at 50 μM” value is given as 2% at 50.

In the case of `CCCCOc1c(Cl)cc(C(=O)N[C@@H]2O[C@H](CO)[C@@H](O[C@H]3O[C@@H]4COC(c5ccccc5)O[C@H]4[C@H](O)[C@H]3O)[C@H](O)[C@H]2O)cc1OC.O` (stereo partly drawn) [Example 26, 4-butoxy-3-chloro-N-[(4′,6′-O-benzylidene)-β-D-maltosyl]-5-methoxy-benzamide Hydrate], the “Porcine Smooth Muscle Cell Antiproliferation, % at 50 μM” value came out at 32% at 50.

For `CCCCOc1c(Cl)cc(C(=O)NC2OC(COC(=O)c3ccccc3)C(OC3OC4COC(c5ccccc5)OC4C(O)C3O)C(O)C2O)cc1OC` [Example 27, N[(6-O-benzoyloxy-4′,6′-O-benzylidene)-β-D-maltosyl]-4-butoxy-3-chloro-5-methoxy-benzamide], the “Porcine Smooth Muscle Cell Antiproliferation, % at 50 μM” value was 45% at 50.

On to `CC(=O)OCC1OC(NC(=O)c2ccc(OCCCC#N)c([N+](=O)[O-])c2)C(OC(C)=O)C(OC(C)=O)C1OC1OC(COC(C)=O)C(OC(C)=O)C(OC(C)=O)C1OC(C)=O` (centres unmarked) [Example 28], for which the “Porcine Smooth Muscle Cell Antiproliferation, % at 50 μM” value is recorded as 3% at 50.

As to `N#CCCCOc1ccc(C(=O)NC2OC(CO)C(OC3OC4COC(c5ccccc5)OC4C(O)C3O)C(O)C2O)cc1[N+](=O)[O-]` [Example 29, N-(4′,6′-O-Benzylidene-β-D-maltosyl)-4-(4-nitrilo-butoxy)-3-nitro-benzamide], the “Porcine Smooth Muscle Cell Antiproliferation, % at 50 μM” value was 4% at 50.

The same experiment, now with this note: serum/growth factor stimulated cells, 24-36 h incubation.
As for `CC(=O)OC[C@H]1O[C@@H](NC(=O)c2ccc(Cl)c([N+](=O)[O-])c2)[C@H](OC(C)=O)[C@@H](OC(C)=O)[C@@H]1O[C@H]1O[C@H](COC(C)=O)[C@@H](OC(C)=O)[C@H](OC(C)=O)[C@H]1OC(C)=O` [Example 1, N-(Hepta-O-acetyl-1-deoxy-β-D-maltosyl)-4-chloro-3-nitro-benzamide], half-maximal inhibition (IC50) was put at 21.2 µM.

Take `CC(=O)Nc1cc(C(=O)NC2OC(CO)C(OC3OC4COC(c5ccccc5)OC4C(O)C3O)C(O)C2O)ccc1Cl` [Example 4, (R)-3-(Acetylamino)-4-chloro-N-[4-O-[4,6-O-(phenylmethylene)-α-D-glucopyranosyl]-β-D-glucopyranosyl]-benzamide]: the IC50 (commonly the concentration needed to halve the response being measured) is 3.2 µM.

As for `CC(=O)Nc1cc(C(=O)NC2OC(COC(=O)c3ccccc3)C(OC3OC4COC(c5ccccc5)OC4C(O)C3O)C(O)C2O)ccc1Cl` [Example 6, (R)-3-(Acetylamino)-N-[6-O-benzoyl-4-O-[4,6-O-(phenylmethylene)-α-D-glucopyranosyl]-β-D-glucopyranosyl]-4-chloro-benzamide], the midpoint of inhibition, the IC50, lay at 0.45 µM.

`O=C(NC1OC(COC(=O)c2ccccc2)C(OC2OC3COC(c4ccccc4)OC3C(O)C2O)C(O)C1O)c1ccc(Cl)c([N+](=O)[O-])c1` [Example 7, (R)-4-chloro-N-[(6-O-benzoyl-4′,6′-O-benzylidene)-β-D-maltosyl]-3-nitro-benzamide] returned an IC50 of 0.55 µM.

For `CC(=O)O[C@@H]1[C@@H](OC(C)=O)[C@H](NC(=O)c2ccc(Cl)c([N+](=O)[O-])c2)O[C@H](COC(=O)c2ccccc2)[C@H]1O[C@H]1O[C@@H]2COC(c3ccccc3)O[C@H]2[C@H](OC(C)=O)[C@H]1OC(C)=O` (stereo partly drawn) [Example 8, 4-Chloro-N-[(2,2′,3,3′-tetra-O-acetyl-6-benzoyl-4′,6′-O benzylidene)-β-D-maltosyl]-3-nitro-benzamide], the IC50 is 0.26 µM.

The compound `CC(=O)Nc1cc(C(=O)NC2OC(COC(=O)c3ccccc3)C(OC3OC4COC(c5ccccc5)OC4C(O)C3OC(C)=O)C(O)C2OC(C)=O)ccc1Cl` [Example 9, (R)-N-[2-O-Acetyl-4-O-[2-O-acetyl-4,6-O-(phenylmethylene)-α-D-glucopyranosyl]-6-O-benzoyl-β-D-glucopyranosyl]-3-(acetylamino)-4-chlorobenzamide] came in with an IC50 of 1.25 µM.

`CC(=O)OC[C@H]1O[C@@H](NC(=O)c2ccc(Cl)cc2)[C@H](OC(C)=O)[C@@H](OC(C)=O)[C@@H]1O[C@H]1O[C@H](COC(C)=O)[C@@H](OC(C)=O)[C@H](OC(C)=O)[C@H]1OC(C)=O` [Example 10, N-(Hepta-O-acetyl-β-D-maltosyl)-4-chloro-benzamide] yielded a concentration for half-maximal inhibition (IC50) of 36.6 µM.

With `O=C(NC1OC(COC(=O)c2ccccc2)C(OC2OC3COC(c4ccccc4)OC3C(O)C2O)C(O)C1O)c1ccc(Cl)cc1` [Example 12, N-(6-O-benzoyl-4′,6′-O-benzylidene-β-D-maltosyl)-4-chloro-benzamide], inhibition was half-maximal at 49.2 µM (IC50).

`CC(=O)OC[C@H]1O[C@@H](NC(=O)c2ccc(OCCCC#N)c(Cl)c2)[C@H](OC(C)=O)[C@@H](OC(C)=O)[C@@H]1O[C@H]1O[C@H](COC(C)=O)[C@@H](OC(C)=O)[C@H](OC(C)=O)[C@H]1OC(C)=O` [Example 13] returned an IC50 of 32.8 µM.

In turn, `CC(=O)OC[C@H]1O[C@H](NC(=O)c2ccc(OCCCC#N)c(Cl)c2)[C@H](OC(C)=O)[C@@H](OC(C)=O)[C@@H]1O[C@H]1O[C@H](COC(C)=O)[C@@H](OC(C)=O)[C@H](OC(C)=O)[C@H]1OC(C)=O` [Example 14] yielded a concentration for half-maximal inhibition (IC50) of 51.3 µM.

Turning to `N#CCCCOc1ccc(C(=O)NC2OC(COC(=O)c3ccccc3)C(OC3OC4COC(c5ccccc5)OC4C(O)C3O)C(O)C2O)cc1Cl` [Example 16, N-(6-O-Benzoyl-4′,6′-O-benzylidene-β-D-maltosyl)-3-chloro-4-(4-nitrilo-butoxy)-phenyl amide], the half-maximal inhibitory concentration (IC50) stood at 0.27 µM.

With `CCCCOc1ccc(C(=O)NC2OC(COC(=O)c3ccccc3)C(OC3OC4COC(c5ccccc5)OC4C(O)C3O)C(O)C2O)cc1Cl` [Example 20, 4-Butoxy-3-chloro-N-[(6-O-benzoyl-4′,6′-O-benzylidene)-β-D-maltosyl]-benzamide], half-maximal inhibition (IC50) was put at 3.14 µM.

Turning to `CCCCOc1ccc(C(=O)N[C@@H]2O[C@H](COC(=O)c3ccccc3)[C@@H](O[C@H]3O[C@@H]4COC(c5ccccc5)O[C@H]4[C@H](OC(C)=O)[C@H]3OC(C)=O)[C@H](OC(C)=O)[C@H]2OC(C)=O)cc1Cl` (stereo partly drawn) [Example 21, 4-Butoxy-3-chloro-N-[(2,3,2′,3′-tetra-O-acetyl-6-O-benzoyl-4′,6′-O-benzylidene)-β-D-maltosyl]-benzamide], the IC50 amounted to 9.8 µM.

`COc1cc(C(=O)NC2OC(COC(=O)c3ccccc3)C(OC3OC4COC(c5ccccc5)OC4C(O)C3O)C(O)C2O)ccc1Cl` [Example 24, N-(6-O-Benzoyl-4′,6′-O-benzylidene-β-D-maltosyl)-4-chloro-3-methoxy-benzamide] displayed an IC50 of 2 µM.

`CCCCOc1c(Cl)cc(C(=O)NC2OC(COC(C)=O)C(OC3OC(COC(C)=O)C(OC(C)=O)C(OC(C)=O)C3OC(C)=O)C(OC(C)=O)C2OC(C)=O)cc1OC` [Example 25, N-(2,2′,3,3′,4,6,6′-hepta-O-acetyl-β-D-maltosyl]-4-butoxy-5-chloro-3-methoxy-benzamide] showed an IC50 of 2.7 µM.
